Structures can show the parent of a compound that is named as a salt.
What was measured:
angiogenesis = experiment: Chick embryo assay of Folkman (inhibition of angiogenesis / tumor growth); assay type: in vivo; settings: 50 μg/10 μl in the presence of heparin
Protocol: According to this procedure compounds which are considered to be "active" (i.e. antiangiogenic) give an avascular zone of 4 mm or greater in some embryos when tested at 50 μg/10 μl in the presence of 50 μg/10μ of heparin.

arachidonic acid = experiment: Arachidonic Acid Antagonism Assay (AAAA), LD50 of sodium arachidonate; assay type: in vivo, Charles River male CF-1 mice; settings: test compound IV 15 min before sodium arachidonate; LD50 outside 95% confidence interval of control
Protocol: Since these metabolites contribute to the pathological problems associated with stroke, spinal trauma and head injury, compounds which antagonize arachidonic acid are useful in treating stroke, spinal trauma and head injury.
While not necessary to determine arachidonic acid antagonism, the above assay has been modified as follows: Charles River male CF-1 mice weighing 18-22 g are treated IV with the test compound dissolved in 1.0% Tween-80 and 0.1% hydrochloric acid in distilled water, 0.2 ml total volume. Fifteen minutes later sodium arachidonate (90% pure) in physiological (normal) saline is injected into the tail vein. The LD50 is measured using the Spearman-Karber method with a log dose interval of 0.05 (N=6). Compounds which elevate the LD50 outside of the 95% confidence interval of the control LD50 are considered to be "active".

interleukin-1 = experiment: Inhibition of interleukin-1 induced T cell proliferation; assay type: cell-based; settings: for inhibition of interleukin 1 (activity in words): active = greater than 30% at 10^-6 M
Source text: The inhibition of interleukin-1 induced T cell proliferation assay, Proc. Nat. […] Since people with arthritis make excess interleukin 1, compounds which inhibit the activity of interleukin 1 are useful in the treatment of arthritis. According to this procedure compounds which inhibit the activity of interleukin 1 greater that 30% at 10^-6 M are considered to be "active".

MDA formation = experiment: Malonyldialdehyde (MDA) Formation Assay (rat brain synaptosomes); assay type: biochemical; settings: 10 min at 37°, pH 7.0; active = 50% or more at 200 μM or less
Protocol: Since lipid peroxidation is involved in the pathophysiology of center nervous system trauma, compounds which inhibit MDA formation are useful in treating the conditions listed below.
While not necessary to determine MDA formation, the above assays have been modified as follows: rat brain synaptosomes are prepared as described in the Example about the conjugated diene assay, except that the final wash of the synaptosomes and final suspension are in physiological (normal) saline in which the pH has been adjusted to 7.0. The synaptosomes are incubated for 10 min at 37° in physiological (normal) saline pH 7.0 (total volume=100 ul) containing; 10 ul synaptosomal suspension, 10% DMSO plus or minus drug, 150 uM Fe^+++ and 50 uM Fe++. The incubation is started by the rapid addition of iron to the otherwise complete reaction. The iron solutions are prepared fresh as ferric chloride and ferrous ammonium sulfate in argon-purged water. Following the 10 min incubation, the reaction is stopped by the addition of 500 ul ice-cold 12% trichloroacetic acid prepared in 0.5N hydrochloric acid. Water (300 ul) is then added along with 100 ul of freshly prepared thiobarbituric acid (3.3% in 0.5N sodium hydroxide) and 10 ul of 5 mM desferrioxamine. The sample is then heated in a boiling water bath for 20 minutes. The samples are cooled and centrifuged for 15 minutes at 1500×g and the absorbence of the supernatant fraction is read at 532 nm. The % inhibition of MDA formation is calculated by dividing the absorbance of sample containing drug by the absorbence of samples incubated without drug. Reaction blanks are samples incubated in the absence of iron. A compound that inhibits MDA formation by 50% or more at a concentration of 200 μM or less is considered "active".

| SMILES | inhibition of interleukin 1 (activity in words) (interleukin-1) | inhibition of MDA formation (activity in words) (MDA formation) | also measured |
| --- | --- | --- | --- |
| C[C@H]1C[C@@H]2[C@H]([C@@H](O)C[C@@]3(C)[C@H]2CC[C@]3(O)C(=O)CN2CCN(c3ccccn3)CC2)[C@@]2(C)C=CC(=O)C=C12 [Example 21, 11β,17α-dihydroxy-6α-methyl-21-[4-(2-pyridinyl)-1-piperazinyl]pregna-1,4-diene-3,20-dione] | demonstrate inhibition of interleukin 1 |  | % of Embryos with 4 mm or Greater Avascular Zone (angiogenesis): 91%; inhibition of angiogenesis (activity in words) (angiogenesis): demonstrate inhibition of angiogenesis; arachidonic acid antagonism (activity in words) (arachidonic acid): demonstrate arachidonic acid antagonism |
| CN(CCN(C)c1ccccn1)CC(=O)[C@@]1(O)CC[C@H]2[C@@H]3CCC4=CC(=O)CC[C@]4(C)C3=CC[C@@]21C [Example 24, 17α-hydroxy-21-[methyl[2-(methyl-2-pyridinylamino)ethyl]-aminopregna-4,9(11)-diene-3,20-dione dihydrochloride] |  |  | inhibition of angiogenesis (activity in words) (angiogenesis): demonstrate inhibition of angiogenesis; arachidonic acid antagonism (activity in words) (arachidonic acid): demonstrate arachidonic acid antagonism |
| COc1ccc(CCN(CC(=O)[C@@]2(O)CC[C@H]3[C@@H]4CCC5=CC(=O)CC[C@]5(C)C4=CC[C@@]32C)Cc2cc(OC)c(OC)c(OC)c2)cc1OC [Example 37, 17α-hydroxy-21-[[2-(3,4-dimethoxy-phenyl)ethyl]-[3,4,5-trimethoxyphenyl)methyl]amino]pregna-4,9(11)diene-3,20-dione hydrochloride] | demonstrate inhibition of interleukin 1 |  | inhibition of angiogenesis (activity in words) (angiogenesis): demonstrate inhibition of angiogenesis |
| COc1ccccc1N1CCN(CC(=O)[C@@]2(O)CC[C@H]3[C@@H]4CCC5=CC(=O)CC[C@]5(C)[C@H]4CC[C@@]32C)CC1.Cl.Cl.O [Example 41, 17α-hydroxy-21-[4-(2-methoxyphenyl)-1-piperazinyl]pregn-4-ene-3,20-dione dihydrochloride hydrate] |  |  | % of Embryos with 4 mm or Greater Avascular Zone (angiogenesis): 80%; arachidonic acid antagonism (activity in words) (arachidonic acid): demonstrate arachidonic acid antagonism |
| CCN(CC)c1cc(N2CCN(CC(=O)[C@@]3(O)CC[C@H]4[C@@H]5CCC6=CC(=O)C=C[C@]6(C)C5=CC[C@@]43C)CC2)nc(N(CC)CC)n1.Cl.Cl.O [Example 75, 21-[4-[2,6-bis(diethylamino)4-pyrimidinyl]-1-piperazinyl]-17α-hydroxypregna-1,4,9(11)-triene-3,20-dione dihydrochloride hydrate] |  |  | arachidonic acid antagonism (activity in words) (arachidonic acid): demonstrate arachidonic acid antagonism |
| C[C@]12CCC(=O)C=C1CC[C@@H]1C2=CC[C@@]2(C)[C@H]1CC[C@]2(O)C(=O)CN1CCOCC1 [Example 93, 17α-hydroxy-21-(4-morpholino)-pregna4,9(11)-diene-3,20-dione (E)-2-butanedioate (1:1) salt] |  |  | arachidonic acid antagonism (activity in words) (arachidonic acid): demonstrate arachidonic acid antagonism |
| C[C@]12CC(=O)[C@H]3[C@@H](CCC4=CC(=O)CC[C@@]43C)[C@@H]1CC[C@@H]2C(=O)CN1CCN(c2cc(N3CCCC3)nc(N3CCCC3)n2)CC1.Cl.Cl [Example 94, 21-[4-[2,6-bis(1-pyrrolidinyl)-4-pyrimidinyl]-1-piperazinyl]pregn-4-ene-3,11,20-trione dihydrochloride] | demonstrate inhibition of interleukin 1 |  |  |
| CCN(CC)c1ccc(N(C)C)c(N2CCN(CC(=O)[C@@]3(O)CC[C@H]4[C@@H]5CCC6=CC(=O)CC[C@]6(C)C5=CC[C@@]43C)CC2)n1.Cl.Cl [Example 96, 21-[4-[6-(diethylamino)-3-(dimethylamino)-2-pyridinyl]-1-piperazinyl]-17α-hydroxypregna-4,9(11)-diene-3,20-dione dihydrochloride] | demonstrate inhibition of interleukin 1 |  | % Inhibition at 10^-6 M (interleukin-1; interleukin 1, 10^-6 M): 77% |
| C[C@]12CC[C@H]3[C@@H](CCC4=CC(=O)C=C[C@@]43C)[C@@H]1CC[C@@H]2C(=O)CN1CCN(c2cc(N3CCCC3)nc(N3CCCC3)n2)CC1.Cl.Cl [Example 97, 21-[4-[2,6-di-(1-pyrrolidinyl)-4-pyrimidinyl]-1-piperazinyl]-pregna-1,4-diene-3,20-dione dihydrochloride] | demonstrate inhibition of interleukin 1 |  | inhibition of angiogenesis (activity in words) (angiogenesis): demonstrate inhibition of angiogenesis |
| CN1CCN(CC(=O)[C@@]2(O)CC[C@H]3[C@@H]4CCC5=CC(=O)CC[C@]5(C)C4=CC[C@@]32C)CC1 [Example 101, 17α-hydroxy-21-(4-methyl-1-piperazinyl)pregna-4,9(11)-diene-3,20-dione] | demonstrate inhibition of interleukin 1 |  |  |
| C[C@]12CCC(=O)C=C1CC[C@@H]1C2=CC[C@]2(C)[C@@H](CCN3CCN(c4cc(N5CCCC5)nc(N5CCCC5)n4)CC3)CC[C@@H]12.Cl [Example 104, 21-[4-(2,6-Bis(1-pyrrolidinyl)-4-pyrimidinyl)-1-piperazinyl]pregna-4,9(11)-dien-3-one hydrochloride] |  | demonstrate such activity | inhibition of angiogenesis (activity in words) (angiogenesis): demonstrate inhibition of angiogenesis |
| CC(CN1CCN(c2cc(N3CCCC3)nc(N3CCCC3)n2)CC1)[C@H]1CC[C@H]2[C@@H]3CCC4=CC(=O)CC[C@]4(C)[C@H]3CC[C@]12C.Cl (some centres unmarked) [Example 107, 20-Methyl-21-[4-(2,6-bis(1-pyrrolidinyl)-4-pyrimidinyl)-1-piperazinyl]pregna-4-ene-3-one hydrochloride] |  | demonstrate such activity |  |
| C[C@@]12C(=CC(=O)C[C@@H]1C#N)CC[C@@H]1C2=CC[C@]2(C)[C@@H](CCN3CCN(c4cc(N5CCCC5)nc(N5CCCC5)n4)CC3)CC[C@@H]12.Cl.Cl.Cl.O [Example 110, 21-[4-(2,6-Bis(1-pyrrolidinyl)4-pyrimidinyl)-1-piperazinyl]-1α-cyanopregna-4,9(11)-dien-3-one-trihydrochloride, hydrate] |  | demonstrate such activity |  |
| C[C@H]1C[C@H]2[C@@H]3C[C@H](F)C4=CC(=O)CC[C@]4(C)C3=CC[C@]2(C)[C@@]1(O)C(=O)CN1CCN(c2cc(N3CCCC3)nc(N3CCCC3)n2)CC1 [Example 118, 6αa-Fluoro-17α-hydroxy-16β-methyl-21-[4-[2,6-bis(1-pyrrolidinyl)-4-pyrimidinyl]-1-piperazinyl]-pregna-4,9(11)-diene-3,20-dione dihydrochloride] |  | demonstrate such activity |  |
| C[C@@H]1C[C@H]2[C@@H]3CCC4=CC(=O)C=C[C@]4(C)[C@H]3CC[C@]2(C)[C@H]1C(=O)CN1CCN(c2cc(N3CCCC3)nc(N3CCCC3)n2)CC1.Cl.Cl [Example 121, 16α-Methyl-21-[4-[2,6-bis(1-pyrrolidinyl)-4-pyrimidinyl]-1-piperazinyl]-pregna-1,4-diene-3,20-dione dihydrochloride] |  | demonstrate such activity |  |
| COc1ccc2c(c1)CC[C@@H]1[C@@H]2CC[C@@]2(C)[C@H]1CC[C@]2(O)C(=O)CN1CCN(c2cc(N3CCCC3)nc(N3CCCC3)n2)CC1 [Example 125, 3,17α-Dihydroxy-21-[4-[2,6-bis(1-pyrrolidinyl)-4-pyrimidinyl]-1-piperazinyl]-19-norpregna-1,3,5(10)-trien-20-one 3-methyl ether (E)-2-butenedioate 1:1 salt] |  | demonstrate such activity |  |
| C[C@]12CC[C@@H]3c4ccc(O)cc4CC[C@H]3[C@@H]1CC[C@]2(O)C(=O)CN1CCN(c2cc(N3CCCC3)nc(N3CCCC3)n2)CC1 [Example 129, 3,17α-Dihydroxy-21-[4-[2,6-bis(1-pyrrolidinyl)-4-pyrimidinyl]-1-piperazinyl]-19-norpregna-1,3,5(10)-trien-20-one (E)-2-butenedioate 1:1 salt] |  | demonstrate such activity |  |
